{"source": "patent US20110166221A1", "about": "“USE OF DRONEDARONE FOR THE PREPARATION OF A MEDICAMENT FOR USE IN THE PREVENTION OF CARDIOVERSION” (SANOFI-AVENTIS, priority 2008, published 2011)", "test_system": "patients with a history of atrial fibrillation or atrial flutter", "assay": "prospective, multinational, double-blind, randomized, multi-center, placebo-controlled, parallel group trial for the prevention of cardioversion", "format": "in vivo, human", "description": "Efficacy of dronedarone and its pharmaceutically acceptable salts versus placebo for the prevention of cardioversion was provided via dronedarone hydrochloride during a prospective, multinational, double-blind, randomized, multi-center, placebo-controlled, parallel group trial.\nPatients must have a history of atrial fibrillation or atrial flutter and/or may be in normal sinus rhythm or in atrial fibrillation or flutter at the time of recruitment.\nRecruitment of patients was conducted taking into account the following inclusion criteria:\n• 1) One of the following risk factors had to be present: • age equal to or greater than 70 years, • hypertension (taking antihypertensives of at least two different classes), • diabetes, • history of cerebral stroke (transient ischemic event or completed cerebral stroke) or of systemic embolism, • left atrial diameter greater than or equal to 50 mm measured by echocardiography, • left ventricular ejection fraction less than 40%, measured by two-dimensional echography; • or • age equal to or above 70, or even above 75, possibly combined with at least one of the risk factors below: • hypertension (taking antihypertensives of at least two different classes), • diabetes, • history of cerebral stroke (transient ischemic event or completed cerebral stroke) or of systemic embolism, • left atrial diameter greater than or equal to 50 mm measured by echocardiography, • left ventricular ejection fraction less than 40%, measured by two-dimensional echography; • 2) availability of one electrocardiogram within the last six months, showing that the patients was or is in atrial fibrillation/flutter, • 3) availability of one electrocardiogram within the last six months, showing that the patients was or is in sinus rhythm.\nStudy drug treatment units (placebo or dronedarone hydrochloride corresponding to 400 mg of base) were such that each patient took one tablet in the morning during or shortly after breakfast and one tablet in the evening during or shortly after dinner.\nThe treatment duration depended on the time of recruitment of each patient in the trial and could be comprised from 12 months to 30 months.\nResults were calculated using non-parametric Kaplan-Meier estimate.\nCox's proportional hazard model was used to estimate the hazard ratio also called relative risk.\nRelative risk (RR) is the ratio between the risk of having a cardioversion for patients treated with dronedarone and the risk of having a cardioversion for patients treated with placebo.\nPercentage of decrease of an event is calculated as follow: […]", "note": "Where a name gives a salt, the structure may show the parent alone.", "data": [{"smiles": "CCCCc1oc2ccc(NS(C)(=O)=O)cc2c1C(=O)c1ccc(OCCCN(CCCC)CCCC)cc1", "note": "[dronedarone hydrochloride, 2-n-butyl-3-[4-(3-di-n-butylaminopropoxy)benzoyl]-5-methylsulfonamido-benzofuran]", "values": [{"measurement": "events (cardioversion) registered", "setting": "2301 of 4628 patients treated, 400 mg of base twice a day with meals, 12 to 30 months, placebo group 481 events", "value": 339}, {"measurement": "Calculated relative risk (hazard ratio) of having a cardioversion versus placebo", "setting": "Cox's proportional hazard model, 400 mg of base twice a day, 12 to 30 months, p<0.001", "value": 0.68}, {"measurement": "time course of effect, Kaplan Meier cumulative incidence from randomization to first cardioversion (FIG. 1)", "setting": "on-study period 12-30 months", "value": "occurred early and increased over time"}, {"measurement": "decrease of electrical cardioversion", "setting": "x=1-RR versus placebo, p<0.001", "value": 32, "unit": "%"}]}]}
